Experimental findings from patent publication US11202792B2, “CD99 inhibitors and their uses” (GEORGETOWN UNIVERSITY, priority 2016, dated 2021) are described below.

As a reminder, the Kd is the free concentration of one partner at which half of the binding sites on the other are occupied at equilibrium, for simple one-to-one binding.

In one experiment the test system is U-2-OS OS cells. Description: Cell viability IC50, U-2-OS. The class given is cell-based. The note with it: Homo sapiens, U2OS. How it is done: (§1) The plate was installed into the RTCA system, and the electrical impedance (represented as cell index) was measured every 10 min.
(§2) To investigate the relationship between the level of CD99 expression and drug sensitivity, the endogenous expression of CD99 was determined in a panel of 9 ES and 13 non-ES cell lines. The recombinant purified CD99-ECD protein was used to generate standard curves for immunoquantification of CD99 expression by immunoblotting (FIGS. 6B and 6C).

The target of experiment [1] is T1, CD99-ECD (extracellular domain of human CD99) (Homo sapiens, UniProt P14209).
T1 construct: the extracellular domain (Asp23-Asp122) of human CD99; made in house; host or cells: Escherichia coli BL21 (DE3)
T1 sequence (P14209 23-122): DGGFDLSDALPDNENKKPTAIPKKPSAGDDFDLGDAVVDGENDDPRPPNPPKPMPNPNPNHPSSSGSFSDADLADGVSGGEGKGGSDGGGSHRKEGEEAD
The experiment is described as follows: SPR binding, CD99-ECD purified from bacteria. The text has this: The Champion™ pET104 BioEase™ Gateway® Expression System (Invitrogen (Carlsbad, Calif.)) was used to produce CD99-ECD fused with a N-terminal biotin tag, as directed by the manufacturer's instructions. Briefly, the DNA sequence encoding the extracellular domain (Asp23-Asp122) of human CD99 was amplified by PCR using pcDNA3.1 expression vector (Life Technologies (Carlsbad, Calif.)) carrying the full-length human CD99 cDNA transcript variant 1 as template. The primers were designed to include an additional C-terminal 6×His tag in the protein. The PCR product was gel purified with a QIAquick gel extraction kit (Qiagen (Hilden, Germany)) and subcloned into the pDONR 221 entry vector. The entry clone was then subjected to a recombination reaction with pET104.1-DEST destination vector, an expression vector with a N-terminal BioEase tag. The presence of an insert was confirmed by DNA sequencing.
CD99-ECD was expressed in Escherichia coli BL21 (DE3) cells. A saturated overnight culture of cells was diluted by 20-fold into fresh LB medium containing 100 μg/mL ampicillin. To induce the expression of CD99-ECD, cells were grown to OD600nm 0.5-0.7 at 37° C. and induced by the addition of isopropyl-β-D-thiogalactopyranoside to a final concentration of 1 mmol/L. The cultures were grown for an additional 3 h at 37° C. Cells were harvested by centrifugation at 8,000×g for 15 min, resuspended in 50 mmol/L sodium phosphate buffer, pH 7.4, containing 500 mmol/L NaCl, 10 mmol/L imidazole and 1 Complete EDTA-free protease inhibitor tablet/50 mL (Roche Diagnostics), and lysed by sonication. […] Protein fractions were finally eluted with a linear gradient of imidazole (10 to 1000 mmol/L) in the same buffer. The purity of the protein was assessed by SDS-PAGE followed by Coomassie staining. The eluted fractions were stored at −80° C. for further use. […]
On the technique in general: In SPR one partner is held on a chip, and binding of the other changes the refractive index at the surface.

Another experiment has as its system ES cell lines. Description: Cell viability IC50 panel (WST-1 or MTT), ES cell lines. The class given is cell-based, human. The settings on record: for IC50: Homo sapiens, 48 h, read-out: average IC50 concentration for ES cell lines; for IC50 concentrations, ES cell lines: all ES cell lines except A673; for increased sensitivity of ES compared to non-ES cell lines: ratio of average IC50 non-ES vs ES. Background: Tetrazolium assays rely on reduction of a dye to a coloured formazan, in cell work by metabolically active cells.

Experiment [2] deals with RH4 rhabdomyosarcoma cells. Description: Cell viability IC50, RH4. The class given is cell-based. The note with it: Homo sapiens, RH4 (RM). The method, then:
as §1, §2

The next experiment relates to TC-CD99-shRNA #1 cells. The note with it: mean ± SD. How it is done:
as §1
(§3) TC-CD99-shRNA clones (TC-CD99-shRNA #1 and TC-CD99-shRNA #2) were established after selection in neomycin (500 μg/ml) (Sigma-Aldrich). The expression of DCK and CD99 was suppressed transiently by using a validated small interfering RNA (siRNA) duplexes targeting coding region (Invitrogen (Carlsbad, Calif.); #s186 and #s8768, respectively). Silencer™ Select Negative Control No. 2 siRNA (Invitrogen) was used as the control. Cells were transfected with DCK or CD99 or control siRNA oligonucleotides using X-tremeGene siRNA transfection reagent (Roche Diagnostics (Basel, Switzerland)) according to the manufacturer's protocol. The cells were analyzed for DCK and CD99 knockdown after 45 or 72 h by immunoblotting.
(§4) Two stable transfectants of TC-71 cell line, TC-CD99-shRNA #1 and TC-CD99-shRNA #2, were generated by using plasmids expressing either a shRNA targeting the 3′ untranslated region (UTR) of CD99 or a scrambled shRNA control.

Another experiment relates to TC-CD99-shRNA #2 cells. The settings on record: mean ± SD. How it is done:
as §1, §3, §4

A further experiment concerns IOR/OS10 OS cells. Description: Cell viability IC50, IOR/OS10. The class given is cell-based. The note with it: Homo sapiens. The method, then:
as §1, §2

The next experiment relates to A673 ES cells. The experiment is described as follows: Cell viability IC50, A673. The class given is cell-based. The note with it: Homo sapiens. The method, then: as §1, §2
Experiment [3] concerns RH30 rhabdomyosarcoma cells. The experiment is described as follows: Cell viability IC50, RH30. The class given is cell-based. The settings on record: Homo sapiens; RH30 (RM). How it is done:
as §1, §2

The next experiment relates to IOR/CAR ES cells. The experiment is described as follows: Cell viability IC50, IOR/CAR. The class given is cell-based. The note with it: Homo sapiens. The method, then:
as §1, §2

Like-named read-outs stand apart in the source and are kept apart here. Bounds are passed on as bounds.

For `Nc1nc(Cl)nc2c1ncn2[C@H]1C[C@H](O)[C@@H](CO)O1` [cladribine], the IC50 is more than 30 µM in the experiment with U-2-OS OS cells; 1.09 ± 1.85 µM in the experiment with ES cell lines; more than 30 µM in experiment [2]; 11.4 µM in the experiment on IOR/OS10 OS cells; 7.42 µM with A673 ES cells; 3.26 µM in experiment [3]. This compound had an IC50 in the experiment on IOR/CAR ES cells of 0.66 µM. Also, the equilibrium dissociation constant (Kd) in experiment [1] came to 3.8 ± 2.4 µM. Moreover, the “IC50 concentrations, ES cell lines” value in the experiment with ES cell lines was “submicromolar”. Further, the “increased sensitivity of ES compared to non-ES cell lines” value with ES cell lines was determined as 18 fold. The “Fold changes in IC50 compared with TC-71 parental cells” value in the experiment with TC-CD99-shRNA #1 cells is reported as 2.85; with TC-CD99-shRNA #1 cells (listed as Cladribine), 2.85 ± 1.13 (n = 4); in the experiment on TC-CD99-shRNA #2 cells, 2.35; in the experiment on TC-CD99-shRNA #2 cells (listed as Cladribine) it was 2.35 ± 1.43 (n = 2).
On to `Nc1nc(Cl)nc2c1ncn2[C@@H]1O[C@H](CO)[C@@H](O)[C@@H]1F` [clofarabine], for which the IC50 with U-2-OS OS cells was more than 30 µM; in the experiment with ES cell lines, 0.44 ± 0.44 µM; in experiment [2], more than 10 µM; with IOR/OS10 OS cells it was 1.37 µM; in the experiment on A673 ES cells it was 1.9 µM; in experiment [3], more than 10 µM. For the same compound, the IC50 in the experiment with IOR/CAR ES cells stood at 0.29 µM. Also, the equilibrium dissociation constant (Kd) in experiment [1] was determined as 4.6 ± 3.2 µM. Further, the “IC50 concentrations, ES cell lines” value in the experiment on ES cell lines is listed as “submicromolar”. Besides, the “increased sensitivity of ES compared to non-ES cell lines” value in the experiment with ES cell lines is reported as 31 fold. Further, the “Fold changes in IC50 compared with TC-71 parental cells” value was 3.70 with TC-CD99-shRNA #1 cells, 3.70 ± 2.98 (n = 5) with TC-CD99-shRNA #1 cells (listed as Clofarabine), 1.63 in the experiment on TC-CD99-shRNA #2 cells and 1.63 ± 0.54 (n = 5) in the experiment on TC-CD99-shRNA #2 cells (listed as Clofarabine).
